Data from US20260263623A1, “STAPLED PEPTIDE-ANTIBODY CONJUGATES (SPACS) AND USES THEREOF” (priority 2021, published 2026).

Tests used:
[1] = test system: MCF7 cell line with low HER2 expression (HER2+), p53 WT; test: 72 hour cytotoxicity assay (CellTiter-Glo), MCF7; type: cell-based; conditions: wild-type p53 (sensitive to MDM2 inhibition), FIG. 6A
Procedure: (§1) Cell culture: Cell lines were maintained in appropriate medium supplemented with fetal bovine serum to a final concentration of 10%.
(§2) 72 hour cytotoxicity assay: Cells were plated in a 96-well format, and after 24 hour incubation, serial dilutions of SPACs from a 1 mg/mL stock, or vehicle, were then added to the cells in a final volume of 100 μl. After incubating at 37° C. for 72 hours, 100 μl of CellTiter-Glo® reagent was added to the cells, and the plates were incubated 15 minutes at room temperature. Luminescence was then measured on a microplate reader.

[2] = test system: HER2+++ p53 mut breast cancer cell line (SK-BR-3); test: 72 hour cytotoxicity assay (CellTiter-Glo), SK-BR-3; type: cell-based; conditions: SK-BR-3, highly expresses HER2, mutated p53 (insensitive to MDM2 inhibition); FIG. 6B
Procedure: as §1, §2

What does the source list for Trastuzumab emtansine?
anti-proliferative activity [1]: no activity; activity (efficacy vs concentration) [2]: shows efficacy at relatively low concentration
